Experimental data as given in patent US12415803B2, “Fused imidazopyridines as reversible inhibitors of Brutons Tyrosine Kinase (BTK)” (Merck Patent GmbH, priority 2018, dated 2025).

Legend:
Btk = Btk (Homo sapiens (Human), UniProt Q06187); assay: Btk PBMC IC50 Cell Assay (anti-IgM-induced CD69 expression on B cells); format: cell-based; settings: anti-IgM-induced CD69 expression on CD19 positive cells in human PBMCs;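 also: freshly isolated human PBMCs, IC50 from concentration-response of the share of CD19+ cells expressing CD69 after anti-IgM BCR stimulation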
Btk, sequence (Q06187 whole entry): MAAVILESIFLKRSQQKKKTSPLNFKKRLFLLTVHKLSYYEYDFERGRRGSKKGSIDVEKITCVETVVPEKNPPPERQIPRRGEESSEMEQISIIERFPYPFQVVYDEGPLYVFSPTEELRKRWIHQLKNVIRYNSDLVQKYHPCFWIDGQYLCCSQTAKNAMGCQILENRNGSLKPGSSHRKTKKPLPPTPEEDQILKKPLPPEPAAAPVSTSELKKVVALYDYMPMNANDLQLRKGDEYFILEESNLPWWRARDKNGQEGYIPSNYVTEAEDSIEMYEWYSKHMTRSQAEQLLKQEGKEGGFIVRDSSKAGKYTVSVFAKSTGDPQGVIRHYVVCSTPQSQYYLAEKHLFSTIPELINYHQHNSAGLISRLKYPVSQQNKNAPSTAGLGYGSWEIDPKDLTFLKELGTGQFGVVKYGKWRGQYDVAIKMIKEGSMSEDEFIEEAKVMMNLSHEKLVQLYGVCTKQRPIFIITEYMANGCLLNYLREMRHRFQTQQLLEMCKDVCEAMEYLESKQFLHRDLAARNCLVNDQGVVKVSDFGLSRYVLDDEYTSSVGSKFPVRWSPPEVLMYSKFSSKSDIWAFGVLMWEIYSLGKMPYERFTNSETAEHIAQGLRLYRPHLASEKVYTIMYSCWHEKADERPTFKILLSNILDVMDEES

full-length human BTK = full-length human BTK (Homo sapiens (Human), UniProt Q06187); assay: BTK IC50 Enzyme Assay (microfluidic off-chip mobility shift kinase assay); format: biochemical; settings: Btk Enzymatic IC50 Assay, 90 min at 27 C;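 also: Read-out separates phosphorylated peptide product from substrate by their charge-to-mass difference, with IC50 fitted from log inhibitor concentration against percent enzyme activity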
full-length human BTK, sequence (Q06187 whole entry): as above

SMILES | IC50 (Btk) | IC50 (full-length human BTK)
Cn1cc(-c2nc3c(-c4ccc5c(c4)OCCC[C@H]5NC(=O)c4noc(C(C)(C)C)n4)ccnc3[nH]2)cn1 [Compound 46, 5-tert-Butyl-[1,2,4]oxadiazole-3-carboxylic acid {(R)-8-[2-(1-methyl-1H-pyrazol-4-yl)-3H-imidazo[4,5-b]pyridin-7-yl]-2,3,4,5-tetrahydro-benzo[b]oxepin-5-yl}-amide] | 1 to 10 nM | < 1 nM
Cn1cc(-c2nc3c(-c4ccc5c(c4)OCCC[C@@H]5NC(=O)c4noc(C(C)(C)C)n4)ccnc3[nH]2)cn1 [Compound 47, 5-tert-Butyl-[1,2,4]oxadiazole-3-carboxylic acid {(S)-8-[2-(1-methyl-1H-pyrazol-4-yl)-3H-imidazo[4,5-b]pyridin-7-yl]-2,3,4,5-tetrahydro-benzo[b]oxepin-5-yl}-amide] | 10 to 100 nM | 1 to 10 nM
Cn1cc(-c2nc3c(-c4ccc5c(c4)CCCC[C@H]5NC(=O)c4nnc(C(C)(C)C)o4)ccnc3[nH]2)cn1 [Compound 48, 5-tert-Butyl-[1,3,4]oxadiazole-2-carboxylic acid {(R)-2-[2-(1-methyl-1H-pyrazol-4-yl)-3H-imidazo[4,5-b]pyridin-7-yl]-6,7,8,9-tetrahydro-5H-benzocyclohepten-5-yl}-amide] | > 100 nM | 1 to 10 nM
Cn1cc(-c2nc3c(-c4ccc5c(c4)CCCC[C@@H]5NC(=O)c4nnc(C(C)(C)C)o4)ccnc3[nH]2)cn1 [Compound 49, 5-tert-Butyl-[1,3,4]oxadiazole-2-carboxylic acid {(S)-2-[2-(1-methyl-1H-pyrazol-4-yl)-3H-imidazo[4,5-b]pyridin-7-yl]-6,7,8,9-tetrahydro-5H-benzocyclohepten-5-yl}-amide] | 1 to 10 nM | < 1 nM
Cn1cc(-c2nc3nccc(-c4ccc5c(c4)CCCC[C@H]5NC(=O)N4CC(OC(C)(C)C)C4)c3[nH]2)cn1 [Compound 50, 3-tert-Butoxy-azetidine-1-carboxylic acid {(R)-2-[2-(1-methyl-1H-pyrazol-4-yl)-3H-imidazo[4,5-b]pyridin-7-yl]-6,7,8,9-tetrahydro-5H-benzocyclohepten-5-yl}-amide] | > 100 nM | 1 to 10 nM
Cn1cc(-c2nc3nccc(-c4ccc5c(c4)CCCC[C@H]5NC(=O)N4CC(OC(C)(C)C)C4)c3[nH]2)cn1 [Compound 51, 3-tert-Butoxy-azetidine-1-carboxylic acid {(R)-2-[2-(1-methyl-1H-pyrazol-4-yl)-3H-imidazo[4,5-b]pyridin-7-yl]-6,7,8,9-tetrahydro-5H-benzocyclohepten-5-yl}-amide] | 1 to 10 nM | < 1 nM
Cn1cc(-c2nc3c(-c4ccc5c(c4)CCCC[C@H]5NC(=O)c4noc(C(C)(C)C)n4)ccnc3[nH]2)cn1 [Compound 52, 5-tert-Butyl-[1,2,4]oxadiazole-3-carboxylic acid {(R)-2-[2-(1-methyl-1H-pyrazol-4-yl)-3H-imidazo[4,5-b]pyridin-7-yl]-6,7,8,9-tetrahydro-5H-benzocyclohepten-5-yl}-amide] | 1 to 10 nM | < 1 nM
Cn1cc(-c2nc3c(-c4ccc5c(c4)CCCC[C@@H]5NC(=O)c4noc(C(C)(C)C)n4)ccnc3[nH]2)cn1 [Compound 53, 5-tert-Butyl-[1,2,4]oxadiazole-3-carboxylic acid {(S)-2-[2-(1-methyl-1H-pyrazol-4-yl)-3H-imidazo[4,5-b]pyridin-7-yl]-6,7,8,9-tetrahydro-5H-benzocyclohepten-5-yl}-amid] | 10 to 100 nM | 1 to 10 nM
Cn1cc(-c2nc3c(-c4ccc5c(c4)CCCC[C@H]5NC(=O)c4noc(C5(C)CC5)n4)ccnc3[nH]2)cn1 [Compound 54, 5-(1-Methyl-cyclopropyl)-[1,2,4]oxadiazole-3-carboxylic acid {(R)-2-[2-(1-methyl-1H-pyrazol-4-yl)-3H-imidazo[4,5-b]pyridin-7-yl]-6,7,8,9-tetrahydro-5H-benzocyclohepten-5-yl}-amide] | 1 to 10 nM | < 1 nM
Cn1cc(-c2nc3c(-c4ccc5c(c4)CCCC[C@@H]5NC(=O)c4noc(C5(C)CC5)n4)ccnc3[nH]2)cn1 [Compound 55, 5-(1-Methyl-cyclopropyl)-[1,2,4]oxadiazole-3-carboxylic acid {(S)-2-[2-(1-methyl-1H-pyrazol-4-yl)-3H-imidazo[4,5-b]pyridin-7-yl]-6,7,8,9-tetrahydro-5H-benzocyclohepten-5-yl}-amide] | 10 to 100 nM | 1 to 10 nM
Cn1cc(-c2nc3c(-c4ccc5c(c4)CCCC[C@@H]5NC(=O)c4cc(C5(C)CC5)on4)ccnc3[nH]2)cn1 [Compound 57, 5-(1-Methyl-cyclopropyl)-isoxazole-3-carboxylic acid {(S)-2-[2-(1-methyl-1H-pyrazol-4-yl)-3H-imidazo[4,5-b]pyridin-7-yl]-6,7,8,9-tetrahydro-5H-benzocyclohepten-5-yl}-amide] | > 100 nM | 1 to 10 nM
Cc1nn(C(C)C)cc1-c1nc2c(-c3ccc4c(c3)CCCCC4NC(=O)c3noc(C(C)(C)C)n3)ccnc2[nH]1 (centres unmarked) [Compound 58, 5-tert-Butyl-[1,2,4]oxadiazole-3-carboxylic acid {2-[2-(1-isopropyl-3-methyl-1H-pyrazol-4-yl)-3H-imidazo[4,5-b]pyridin-7-yl]-6,7,8,9-tetrahydro-5H-benzocyclohepten-5-yl}-amide] | 1 to 10 nM | < 1 nM
Cc1nn(C(C)C)cc1-c1nc2c(-c3ccc4c(c3)CCCC[C@H]4NC(=O)c3nc(C4(C)CC4)no3)ccnc2[nH]1 [Compound 59, 3-(1-Methyl-cyclopropyl)-[1,2,4]oxadiazole-5-carboxylic acid {(R)-2-[2-(1-isopropyl-3-methyl-1H-pyrazol-4-yl)-3H-imidazo[4,5-b]pyridin-7-yl]-6,7,8,9-tetrahydro-5H-benzocyclohepten-5-yl}-amide] | 1 to 10 nM | < 1 nM
Cc1nn(C(C)C)cc1-c1nc2c(-c3ccc4c(c3)CCCC[C@@H]4NC(=O)c3nc(C4(C)CC4)no3)ccnc2[nH]1 [Compound 60, 3-(1-Methyl-cyclopropyl)-[1,2,4]oxadiazole-5-carboxylic acid {(S)-2-[2-(1-isopropyl-3-methyl-1H-pyrazol-4-yl)-3H-imidazo[4,5-b]pyridin-7-yl]-6,7,8,9-tetrahydro-5H-benzocyclohepten-5-yl}-amide] | 10 to 100 nM | 1 to 10 nM
Cc1nn(C(C)C)cc1-c1nc2c(-c3ccc4c(c3)CCCC[C@H]4NC(=O)c3noc(C(C)(C)C)n3)ccnc2[nH]1 [Compound 61, 5-tert-Butyl-[1,2,4]oxadiazole-3-carboxylic acid {(R)-2-[2-(1-isopropyl-3-methyl-1H-pyrazol-4-yl)-3H-imidazo[4,5-b]pyridin-7-yl]-6,7,8,9-tetrahydro-5H-benzocyclohepten-5-yl}-amide] | 1 to 10 nM | < 1 nM
Cc1nn(C(C)C)cc1-c1nc2c(-c3ccc4c(c3)CCCC[C@@H]4NC(=O)c3noc(C(C)(C)C)n3)ccnc2[nH]1 [Compound 62, 5-tert-Butyl-[1,2,4]oxadiazole-3-carboxylic acid {(S)-2-[2-(1-isopropyl-3-methyl-1H-pyrazol-4-yl)-3H-imidazo[4,5-b]pyridin-7-yl]-6,7,8,9-tetrahydro-5H-benzocyclohepten-5-yl}-amide] | 10 to 100 nM | 1 to 10 nM
Cc1nn(C(C)C)cc1-c1nc2c(-c3ccc4c(c3)CCCC[C@H]4NC(=O)c3nc(C(C)(C)C)no3)ccnc2[nH]1 [Compound 63, 3-tert-Butyl-[1,2,4]oxadiazole-5-carboxylic acid {(R)-2-[2-(1-isopropyl-3-methyl-1H-pyrazol-4-yl)-3H-imidazo[4,5-b]pyridin-7-yl]-6,7,8,9-tetrahydro-5H-benzocyclohepten-5-yl}-amide] | 1 to 10 nM | < 1 nM
Cc1nn(C)cc1-c1nc2c(-c3ccc4c(c3)CCCC4NC(=O)c3nc(C(C)(C)C)no3)ccnc2[nH]1 (centres unmarked) [Compound 67, 3-tert-Butyl-[1,2,4]oxadiazole-5-carboxylic acid {6-[2-(1,3-dimethyl-1H-pyrazol-4-yl)-3H-imidazo[4,5-b]pyridin-7-yl]-1,2,3,4-tetrahydro-naphthalen-1-yl}-amide] | 10 to 100 nM | < 1 nM
Cc1nn(C)c(C)c1-c1nc2c(-c3ccc4c(c3)CCCC4NC(=O)c3nc(C(C)(C)C)no3)ccnc2[nH]1 (centres unmarked) [Compound 68, 3-tert-Butyl-[1,2,4]oxadiazole-5-carboxylic acid {6-[2-(1,3,5-trimethyl-1H-pyrazol-4-yl)-3H-imidazo[4,5-b]pyridin-7-yl]-1,2,3,4-tetrahydro-naphthalen-1-yl}-amide] | 10 to 100 nM | 1 to 10 nM
Cc1nn(C)c(C)c1-c1nc2nccc(-c3ccc4c(c3)CCCC[C@@H]4NC(=O)c3cc(C(C)(C)C)on3)c2[nH]1 [Compound 71, 5-tert-butyl-N-[(5S)-2-[2-(1,3,5-trimethyl-1H-pyrazol-4-yl)-1H-imidazo[4,5-b]pyridin-7-yl]-6,7,8,9-tetrahydro-5H-benzo[7]annulen-5-yl]-1,2-oxazole-3-carboxamide] | 10 to 100 nM | 1 to 10 nM
Cc1nn(C)c(C)c1-c1nc2c(-c3ccc4c(c3)CCC[C@@H]4NC(=O)c3nc(C(C)(C)C)no3)ccnc2[nH]1 [Compound 73, 3-tert-butyl-N-[(1S)-6-[2-(1,3,5-trimethyl-1H-pyrazol-4-yl)-3H-imidazo[4,5-b]pyridin-7-yl]-1,2,3,4-tetrahydronaphthalen-1-yl]-1,2,4-oxadiazole-5-carboxamide] | 1 to 10 nM | 1 to 10 nM
CC(C)(C)c1noc(C(=O)N[C@@H]2CCCc3cc(-c4ccnc5[nH]c(-c6cnn(C7CC7)c6)nc45)ccc32)n1 [Compound 75, 3-tert-butyl-N-[(1R)-6-[2-(1-cyclopropyl-1H-pyrazol-4-yl)-3H-imidazo[4,5-b]pyridin-7-yl]-1,2,3,4-tetrahydronaphthalen-1-yl]-1,2,4-oxadiazole-5-carboxamide] | 1 to 10 nM | < 1 nM
